Laboratory results: patent publication US20240041042A1, “1-(PYRIDYL)-5-AZINYLPYRAZOLE DERIVATIVES, AND THEIR USE FOR CONTROL OF UNDESIRED PLANT GROWTH” (Bayer Aktiengesellschaft, priority 2020, published 2024)
Like-named read-outs stand apart in the source and are kept apart here.

Legend:
Assay type in all cases: in vivo
[1] = test system: Abutilon theophrasti (ABUTH); assay: Pre-emergence herbicidal action against ABUTH; details: Dosage column 320 g/ha (title prints 3200 g/ha); scored visually after about 3 weeks; 100% = plants have died
How it was run: (§1)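 Pre-emergence soil-surface spray of compound, formulated as wettable powder or emulsion concentrate, in aqueous suspension or emulsion with 0.5% additive (600 l/ha; rate 320 g/ha or less). Activity rated visually after roughly 3 weeks in the greenhouse as a percentage of untreated controls, 0% meaning no difference.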

[2] = test system: Echinochloa crus-galli (ECHCG); assay: Pre-emergence herbicidal action against ECHCG
How it was run: as §1

[3] = test system: Polygonum convolvulus (POLCO); assay: Pre-emergence herbicidal action against POLCO
How it was run: as §1

[4] = test system: Matricaria inodora (MATIN); assay: Pre-emergence herbicidal action against MATIN; details: dosage 320 g/ha
How it was run: as §1

[5] = test system: Alopecurus myosuroides (ALOMY); assay: Pre-emergence herbicidal action against ALOMY; details: scored visually after about 3 weeks, 100% = plants have died
How it was run: as §1

[6] = test system: Pharbitis purpurea (PHBPU); assay: Pre-emergence herbicidal action against PHBPU; details: dosage 320 g/ha
How it was run: as §1

Avena fatua (AVEFA) [7] = assay: Pre-emergence herbicidal action against AVEFA; details: visual scoring after about 3 weeks vs untreated controls
How it was run: as §1

[8] = test system: Alopecurus myosuroides (ALOMY); assay: Post-emergence herbicidal action against ALOMY; details: visual rating about 3 weeks after treatment vs untreated controls (100% = plants have died, 0% = like control plants)
How it was run: (§2)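 Values are percent visual activity (0% like control, 100% plants dead) after about 3 weeks in the greenhouse. Treatment: post-emergence spray at one-leaf stage, 600 l/ha spray volume, 0.5% additive, doses 320 g/ha or lower.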

Setaria viridis (SETVI) [9] = assay: Pre-emergence herbicidal action against SETVI
How it was run: as §1

[10] = test system: Amaranthus retroflexus (AMARE); assay: Pre-emergence herbicidal action against AMARE; details: visual scoring after about 3 weeks vs untreated controls
How it was run: as §1

[11] = test system: Matricaria inodora (MATIN); assay: Post-emergence herbicidal action against MATIN
How it was run: as §2

Lolium rigidum (LOLRI) [12] = assay: Post-emergence herbicidal action against LOLRI
How it was run: as §2

[13] = test system: Verconica persica (VERPE); assay: Post-emergence herbicidal action against VERPE
How it was run: as §2

[14] = test system: Echinochloa crus-galli (ECHCG); assay: Post-emergence herbicidal action against ECHCG
How it was run: as §2

[15] = test system: Verconica persica (VERPE); assay: Pre-emergence herbicidal action against VERPE; details: dosage 320 g/ha
How it was run: as §1

Avena fatua (AVEFA) [16] = assay: Post-emergence herbicidal action against AVEFA; details: visual rating about 3 weeks after treatment
How it was run: as §2

Lolium rigidum (LOLRI) [17] = assay: Pre-emergence herbicidal action against LOLRI
How it was run: as §1

Oryza sativa (ORYSA) = details: crop plant compatibility
How it was run: (§3)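 Test crops were treated 2 to 3 weeks after sowing, once they reached one leaf, by spraying compound in water with 0.5% additive at 600 l/ha. Visual scoring compared them with untreated controls roughly 3 weeks on, and appendices a, b and c denote different doses.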

Zea mays (ZEAMX) = test system: Zea mays (ZEAMX)
How it was run: as §3

Viola tricolor (VIOTR) [18] = assay: Pre-emergence herbicidal action against VIOTR
How it was run: as §1

[19] = test system: Amaranthus retroflexus (AMARE); assay: Post-emergence herbicidal action against AMARE
How it was run: as §2

Viola tricolor (VIOTR) [20] = assay: Post-emergence herbicidal action against VIOTR
How it was run: as §2

[21] = test system: Polygonum convolvulus (POLCO); assay: Post-emergence herbicidal action against POLCO
How it was run: as §2

Setaria viridis (SETVI) [22] = assay: Post-emergence herbicidal action against SETVI
How it was run: as §2

[23] = test system: Pharbitis purpurea (PHBPU); assay: Post-emergence herbicidal action against PHBPU; details: dosage 320 g/ha
How it was run: as §2

SMILES | Pre-emergence action against ABUTH [1] | Pre-emergence action against ECHCG in % ([2]; dosage 320 g/ha) | Pre-emergence action against POLCO in % ([3]; dosage 80 g/ha) | Pre-emergence action against POLCO in % ([3]; dosage 320 g/ha) | Pre-emergence action against MATIN in % [4] | Pre-emergence action against ALOMY ([5]; 80 g/ha) | Pre-emergence action against ALOMY ([5]; 320 g/ha) | Pre-emergence action against PHBPU in % [6] | Pre-emergence action against AVEFA in % (Avena fatua (AVEFA) [7]; 320 g/ha) | Pre-emergence action against SETVI in % (Setaria viridis (SETVI) [9]; dosage 320 g/ha) | Pre-emergence action against AMARE in % ([10]; 80 g/ha) | Pre-emergence action against AMARE in % ([10]; 320 g/ha) | Post-emergence action against VERPE in % ([13]; dosage 80 g/ha) | Post-emergence action against ECHCG in % ([14]; dosage 80 g/ha) | Pre-emergence action against VERPE in % [15] | Post-emergence action against AVEFA in % (Avena fatua (AVEFA) [16]; 80 g/ha) | Pre-emergence action against LOLRI in % (Lolium rigidum (LOLRI) [17]; dosage 80 g/ha) | Pre-emergence action against LOLRI in % (Lolium rigidum (LOLRI) [17]; dosage 320 g/ha) | Pre-emergence action against VIOTR in % (Viola tricolor (VIOTR) [18]; 320 g/ha, Viola tricolor) | Pre-emergence action against VIOTR in % (Viola tricolor (VIOTR) [18]; dosage 80 g/ha) | also measured
CCOC(=O)[C@@H](C)Oc1nn(-c2ncccc2F)c(-c2ccc(F)nc2)c1Br [Example I-33] | 80% | 100% | 90% | 100% | 90% | 100% | 100% | 90% | 100% | 100% | 90% | 100% | 90% | 90% | 100% | 90% | 90% | 100% | 100% | 100% | Pre-emergence action against ECHCG in % ([2]; dosage 80 g/ha): 90%; Pre-emergence action against AVEFA in % (Avena fatua (AVEFA) [7]; 80 g/ha): 80%; Post-emergence action against ALOMY in % ([8]; 80 g/ha): 90%; Pre-emergence action against SETVI in % (Setaria viridis (SETVI) [9]; dosage 80 g/ha): 90%; Post-emergence action against MATIN in % ([11]; dosage 80 g/ha): 80%; Post-emergence action against LOLRI in % (Lolium rigidum (LOLRI) [12]; dosage 80 g/ha): 80%; Post-emergence action against ORYSA in % (Oryza sativa (ORYSA); 20 g/ha, effect vs untreated controls): 0%; Post-emergence action against ORYSA in % (Oryza sativa (ORYSA); 80 g/ha, effect in comparison to untreated controls): 10%; Post-emergence action against ZEAMX in % (crop plant compatibility) (Zea mays (ZEAMX); 20 g/ha, ZEAMX, effect in comparison to untreated controls): 10%
Cc1cccnc1-n1nc(OCC(=O)O)c(Br)c1-c1ccc(F)nc1 [Example I-324] | 80% | 100% | 90% | 100% | 90% | 100% | 100% | 90% | 100% | 100% | 100% | 100% | 90% | 90% | 100% | 100% | 100% | 100% | 100% | 100% | Post-emergence action against AMARE in % ([19]; 80 g/ha, visual rating about 3 weeks after treatment vs untreated controls (100% = plants have died, 0% = like control plants)): 90%; Post-emergence action against AMARE in % ([19]; 320 g/ha, visual rating about 3 weeks after treatment): 90%; Post-emergence action against ALOMY in % ([8]; 320 g/ha): 100%; Post-emergence action against MATIN in % ([11]; dosage 320 g/ha): 80%; Post-emergence action against VIOTR in % (Viola tricolor (VIOTR) [20]; 80 g/ha): 80%; Post-emergence action against VIOTR in % (Viola tricolor (VIOTR) [20]; 320 g/ha): 80%; Post-emergence action against LOLRI in % (Lolium rigidum (LOLRI) [12]; dosage 320 g/ha): 90%; Post-emergence action against VERPE in % ([13]; 320 g/ha, VERPE): 90%; Post-emergence action against ECHCG in % ([14]; dosage 320 g/ha): 90%; Post-emergence action against POLCO in % ([21]; dosage 80 g/ha): 80%; Post-emergence action against POLCO in % ([21]; dosage 320 g/ha): 80%; Post-emergence action against AVEFA in % (Avena fatua (AVEFA) [16]; 320 g/ha): 100%; Post-emergence action against SETVI in % (Setaria viridis (SETVI) [22]; dosage 80 g/ha): 80%; Post-emergence action against SETVI in % (Setaria viridis (SETVI) [22]; dosage 320 g/ha): 90%; Post-emergence action against ZEAMX in % (Zea mays (ZEAMX); crop plant compatibility, 80 g/ha, effect vs untreated controls): 0%; Post-emergence action against PHBPU in % [23]: 90%
